The results in this text go back to article PMC4871484, “Functional Green-Tuned Proteorhodopsin from Modern Stromatolites” (PLoS ONE, 2016).

The target in this assay is T1, E17R (E17-PR), green proteorhodopsin (Exiguobacterium sp. S17, UniProt S3FWZ0).
T1 sequence (S3FWZ0 1-248): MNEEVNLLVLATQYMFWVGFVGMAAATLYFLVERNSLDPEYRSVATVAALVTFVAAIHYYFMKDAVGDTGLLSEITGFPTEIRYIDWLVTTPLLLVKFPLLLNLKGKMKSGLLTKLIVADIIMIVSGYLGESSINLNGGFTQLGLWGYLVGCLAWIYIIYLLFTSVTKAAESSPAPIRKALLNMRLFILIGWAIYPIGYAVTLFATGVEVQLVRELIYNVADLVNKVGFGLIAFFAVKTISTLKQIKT
In words: UV-vis absorption of purified holoprotein; hydroxylamine bleaching to retinal oxime. Conditions: covalent; Schiff base with lysine; […] HEPES, […] NaCl, […] DDM; room temperature. Type of assay: binding.

With `CC1=C(/C=C/C(C)=C/C=C/C(C)=C/C=O)C(C)(C)CCC1` [retinal], the “UV-vis absorption of purified holoprotein; hydroxylamine bleaching to retinal ox” value is “Expression and purification of E17R yielded after purification and retinal addition a protein with λmax”.
